Test system: ADHD animal model implanted with cobalt wire
Assay: Changes in brain wave (EEG spikes) of ADHD animal model by T-type calcium channel blocker
Assay type: in vivo, mouse
Settings: cobalt wire implanted 7~9 days earlier, brain wave observed for one hour; for spikes observed in the frontal lobe, after vs before treatment: P<0.05
Experimental: Particularly, to construct the ADHD mouse model, 0.2% avertin in 20 mg/ml of tribromoethanol was administered to the mouse by intraperitoneal injection (i.p.) to anesthetize it. The head of the mouse (B6 mouse at 10˜20 weeks) was fixed on stereotaxic (David Kopf Instruments, Germany) and then cobalt wire (Alfa Aesar) was inserted therein by using holder, a part of stereotaxic. Cobalt wire (Alfa Aesar) of 500 μm in the diameter was inserted radially (vertical direction to the cortical surface) in the location of anteroposteriorally 2.6 mm, laterally 1.8 mm, and ventrally 1.3 mm in the right dorsolateral frontal lobe.
For the record of EEG, epidural electrode was inserted in the right frontal lobe where the cobalt wire was inserted. Other electrodes were inserted in the left frontal lobe and temporal lobe. Particularly, the location for the insertion in the right frontal lobe was anteroposteriorally 2.8 mm and laterally 0.8 mm and the location in the left frontal lobe was anteroposteriorally 2.8 mm and laterally 0.8 mm. […]
After three days of recovery, EEG signals and video images were recorded for 30 days. […]
Particularly, 150 mg/kg of ethosuximide (Sigma-Aldrich, USA) was administered in the abdominal cavity of the ADHD animal model implanted with cobalt wire 7˜9 days earlier, followed by observation of the changes in brain wave for one hour. The mice were placed in the test room having square bottom where they could move freely and brain waves were being recorded from 30 minutes before the ethosuximide administration. The number of spikes was measured before and after the treatment of ethosuximide.
60 mg/kg of zonisamide (Sigma-Aldrich, USA) and 100 mg/kg of phyenytoin (Sigma-Aldrich, USA) were administered respectively in the abdominal cavity of the ADHD animal model implanted with cobalt wire 7˜9 days earlier, followed by observation of the changes in brain wave for one hour. The mice were placed in the test room having square bottom where they could move freely and brain waves were being recorded from 30 minutes before the ethosuximide administration. […]

## CCC1(C)CC(=O)NC1=O (stereo not drawn) [ethosuximide]
150 mg/kg in the abdominal cavity
  number of spikes observed in the frontal lobe, after vs before treatment: significantly reduced

## O=C1NC(=O)C(c2ccccc2)(c2ccccc2)N1 [phyenytoin]
100 mg/kg in the abdominal cavity
  spikes observed in the frontal lobe, after vs before treatment: significantly reduced

## NS(=O)(=O)Cc1noc2ccccc12 [zonisamide]
60 mg/kg in the abdominal cavity
  spikes observed in the frontal lobe, after vs before treatment: significantly reduced

From patent publication US20130184321A1, “Model Mouse of Attention Deficit Hyperactivity Disorder, Method for Investigating Effects for Preventing and Alleviating Attention Disorder using the Model Mouse, and Method for Treating Attention Disorder by Suppressing T-Type Calcium Channel” (KOREA ADVANCED INSTITUTE OF SCIENCE AND TECHNOLOGY, priority 2010, published 2013)
